Here are results for 16 compounds from paper PMC11206203, “Peptide macrocyclisation via intramolecular interception of visible-light-mediated desulfurisation” (Chemical Science, 2024).

Each structure is given as a SMILES string.

A short description of this data set: C(sp3)-C(sp3) bond formation by visible-light-mediated Cys desulfurisation: alanyl radical adds to terminal alkene of allylglycine (or O-allyl Ser, pentenylGly, acrylamide); TCEP 50 eq (25 mM), (Ir[dF(CF3)ppy]2(dtbpy))PF6 1 mol%, 450 nm blue LED; unprotected peptides. The conditions noted are these: 6 M Gdn.HCl, 0.1 M Na2HPO4 pH 7.5-8.0 / MeCN 9:1, 0.5 mM, 25.0 °C.

Consider `CCCC[C@@H]1NC(=O)[C@H](CO)NC(=O)[C@H](CC(=O)O)NC(=O)CNC(=O)[C@H](C(C)C)NC(=O)[C@H](CCC(N)=O)NC(=O)[C@@H](NC(=O)[C@H](CC(C)C)NC(=O)[C@H](Cc2c[nH]cn2)NC(=O)[C@H](CCCNC(=N)N)NC(C)=O)CCCC[C@@H](C(=O)N[C@@H](CCCNC(=N)N)C(=O)N[C@@H](CO)C(=O)N[C@H](C(N)=O)[C@@H](C)CC)NC1=O`, for which the ring closure, isolated yield (from C=CC[C@H](NC(=O)[C@H](CC(C)C)NC(=O)[C@H](Cc1c[nH]cn1)NC(=O)[C@H](CCCNC(=N)N)NC(C)=O)C(=O)N[C@@H](CCC(N)=O)C(=O)N[C@H](C(=O)NCC(=O)N[C@@H](CC(=O)O)C(=O)N[C@@H](CO)C(=O)N[C@@H](CCCC)C(=O)N[C@@H](CS)C(=O)N[C@@H](CCCNC(=N)N)C(=O)N[C@@H](CO)C(=O)N[C@H](C(N)=O)[C@@H](C)CC)C(C)C, 26-membered ring) was 23%.
Take `CC(=O)N[C@H]1CCCC[C@@H](C(N)=O)NC(=O)[C@H](CCC(=O)O)NC(=O)[C@H](Cc2ccccc2)NC(=O)[C@H](C)NC1=O` [Ac-(allylGly)-Ala-Phe-Glu-Cys-NH2]: the ring closure, isolated yield (from C=CC[C@H](NC(C)=O)C(=O)N[C@@H](C)C(=O)N[C@@H](Cc1ccccc1)C(=O)N[C@@H](CCC(=O)O)C(=O)N[C@@H](CS)C(N)=O, 17-membered ring) amounted to 74%.
`CSCC[C@@H]1NC(=O)[C@@H]2CCCN2C(=O)[C@H](CCCNC(=N)N)NC(=O)[C@@H](NC(C)=O)CCCC[C@@H](C(N)=O)NC(=O)[C@H](Cc2c[nH]cn2)NC1=O` [Ac-(allylGly)-Arg-Pro-Met-His-Cys-NH2] showed a ring closure, isolated yield (from C=CC[C@H](NC(C)=O)C(=O)N[C@@H](CCCNC(=N)N)C(=O)N1CCC[C@H]1C(=O)N[C@@H](CCSC)C(=O)N[C@@H](Cc1c[nH]cn1)C(=O)N[C@@H](CS)C(N)=O, 20-membered ring) of 48%.
The compound `CC(=O)N[C@H]1CCCC[C@@H](C(N)=O)NC(=O)[C@H](C(C)C)NC(=O)[C@H](CCCNC(=N)N)NC(=O)[C@@H]2CCCN2C(=O)[C@H](Cc2c[nH]cn2)NC(=O)[C@H](CC(N)=O)NC1=O` [Ac-(allylGly)-Asn-His-Pro-Arg-Val-Cys-NH2] registered a ring closure, isolated yield (from C=CC[C@H](NC(C)=O)C(=O)N[C@@H](CC(N)=O)C(=O)N[C@@H](Cc1c[nH]cn1)C(=O)N1CCC[C@H]1C(=O)N[C@@H](CCCNC(=N)N)C(=O)N[C@H](C(=O)N[C@@H](CS)C(N)=O)C(C)C, 23-membered ring) of 32%.
Under “from C=CC[C@H](NC(C)=O)C(=O)N[C@@H](CC(=O)O)C(=O)N[C@@H](CO)C(=O)N[C@@H](Cc1ccc(O)cc1)C(=O)N[C@@H](CCCCN)C(=O)N[C@H](C(=O)N[C@@H](CS)C(N)=O)[C@@H](C)CC, 23-membered ring”, `CC[C@H](C)[C@@H]1NC(=O)[C@H](CCCCN)NC(=O)[C@H](Cc2ccc(O)cc2)NC(=O)[C@H](CO)NC(=O)[C@H](CC(=O)O)NC(=O)[C@@H](NC(C)=O)CCCC[C@@H](C(N)=O)NC1=O` [Ac-(allylGly)-Asp-Ser-Tyr-Lys-Ile-Cys-NH2] returned a ring closure, isolated yield of 58%.
In the case of `CCCC[C@@H]1NC(=O)[C@H](CO)NC(=O)[C@H](CC(=O)O)NC(=O)CNC(=O)[C@H](C(C)C)NC(=O)[C@H](CCC(N)=O)NC(=O)[C@@H](NC(C)=O)CCCC[C@@H](C(N)=O)NC1=O` [Ac-(allylGly)-Gln-Val-Gly-Asp-Ser-Nle-Cys-NH2], the ring closure, isolated yield (from C=CC[C@H](NC(C)=O)C(=O)N[C@@H](CCC(N)=O)C(=O)N[C@H](C(=O)NCC(=O)N[C@@H](CC(=O)O)C(=O)N[C@@H](CO)C(=O)N[C@@H](CCCC)C(=O)N[C@@H](CS)C(N)=O)C(C)C, 26-membered ring) worked out at 76%.
Compound `CC(=O)N[C@H]1CCCC[C@@H](C(N)=O)NC(=O)[C@H](Cc2c[nH]c3ccccc23)NC(=O)[C@H](CCC(N)=O)NC(=O)[C@H](CC(C)C)NC(=O)[C@H](CCC(=O)O)NC1=O` [Ac-(allylGly)-Glu-Leu-Gln-Trp-Cys-NH2] showed a ring closure, isolated yield (from C=CC[C@H](NC(C)=O)C(=O)N[C@@H](CCC(=O)O)C(=O)N[C@@H](CC(C)C)C(=O)N[C@@H](CCC(N)=O)C(=O)N[C@@H](Cc1c[nH]c2ccccc12)C(=O)N[C@@H](CS)C(N)=O, 20-membered ring) of 37%.
`CC[C@H](C)[C@@H]1NC(=O)[C@@H](NC(C)=O)CCCC[C@@H](C(N)=O)NC(=O)[C@H](CCCNC(=N)N)NC(=O)[C@H](Cc2c[nH]c3ccccc23)NC1=O` [Ac-(allylGly)-Ile-Trp-Arg-Cys-NH2] showed a ring closure, isolated yield (from C=CC[C@H](NC(C)=O)C(=O)N[C@H](C(=O)N[C@@H](Cc1c[nH]c2ccccc12)C(=O)N[C@@H](CCCNC(=N)N)C(=O)N[C@@H](CS)C(N)=O)[C@@H](C)CC, 17-membered ring) of 59%.
`CSCC[C@@H]1NC(=O)[C@H](Cc2ccc(O)cc2)NC(=O)[C@H](CC(C)C)NC(=O)[C@@H](NC(C)=O)CCCC[C@@H](C(N)=O)NC1=O` [Ac-(allylGly)-Leu-Tyr-Met-Cys-NH2] showed a ring closure, isolated yield (from C=CC[C@H](NC(C)=O)C(=O)N[C@@H](CC(C)C)C(=O)N[C@@H](Cc1ccc(O)cc1)C(=O)N[C@@H](CCSC)C(=O)N[C@@H](CS)C(N)=O, 17-membered ring) of 69%.
Turning to `CC[C@H](C)[C@@H]1NC(=O)[C@H](CCCCN)NC(=O)[C@@H](NC(C)=O)CCCC[C@@H](C(N)=O)NC(=O)[C@H](Cc2ccc(O)cc2)NC(=O)[C@H](CO)NC1=O` [Ac-(allylGly)-Lys-Ile-Ser-Tyr-Cys-NH2], for the setting “from C=CC[C@H](NC(C)=O)C(=O)N[C@@H](CCCCN)C(=O)N[C@H](C(=O)N[C@@H](CO)C(=O)N[C@@H](Cc1ccc(O)cc1)C(=O)N[C@@H](CS)C(N)=O)[C@@H](C)CC, 20-membered ring”, the ring closure, isolated yield worked out at 64%.
In the case of `CC(=O)N[C@H]1CCCC[C@@H](C(N)=O)NC(=O)[C@H](CCCCN)NC(=O)[C@@H]2CCCN2C(=O)[C@H]([C@@H](C)O)NC1=O` [Ac-(allylGly)-Thr-Pro-Lys-Cys-NH2], the ring closure, isolated yield (from C=CC[C@H](NC(C)=O)C(=O)N[C@H](C(=O)N1CCC[C@H]1C(=O)N[C@@H](CCCCN)C(=O)N[C@@H](CS)C(N)=O)[C@@H](C)O, 17-membered ring) was 48%.
Take `CC(=O)N[C@H]1CCCC[C@@H](C(N)=O)NC(=O)[C@H](CC(=O)O)NC(=O)CNC(=O)[C@H](C(C)C)NC1=O` [Ac-(allylGly)-Val-Gly-Asp-Cys-NH2]: the ring closure, isolated yield (from C=CC[C@H](NC(C)=O)C(=O)N[C@H](C(=O)NCC(=O)N[C@@H](CC(=O)O)C(=O)N[C@@H](CS)C(N)=O)C(C)C, 17-membered ring) is 54%.
Where the note is “from C=CC[C@H](NC(C)=O)C(=O)N[C@H](C(=O)N[C@@H](Cc1c[nH]cn1)C(=O)N[C@@H](CCC(N)=O)C(=O)N[C@@H](CS)C(N)=O)C(C)C, 17-membered ring”, `CC(=O)N[C@H]1CCCC[C@@H](C(N)=O)NC(=O)[C@H](CCC(N)=O)NC(=O)[C@H](Cc2c[nH]cn2)NC(=O)[C@H](C(C)C)NC1=O` [Ac-(allylGly)-Val-His-Gln-Cys-NH2] registered a ring closure, isolated yield of 59%.
In turn, `CC[C@H](C)[C@@H]1NC(=O)[C@H](CCCCN)NC(=O)[C@@H](NC(C)=O)CCCC[C@@H](C(N)=O)NC(=O)[C@H](Cc2ccc(O)cc2)NC(=O)[C@H](CO)NC1=O` [Ac-Cys-Lys-Ile-Ser-Tyr-(allylGly)-NH2] registered a ring closure, isolated yield (from C=CC[C@H](NC(=O)[C@H](Cc1ccc(O)cc1)NC(=O)[C@H](CO)NC(=O)[C@@H](NC(=O)[C@H](CCCCN)NC(=O)[C@H](CS)NC(C)=O)[C@@H](C)CC)C(N)=O, 20-membered ring) of 64%.
Take `CCCC[C@H](NC(=O)[C@@H]1CCCC[C@H](NC(=O)[C@H](C)NC(=O)[C@H](CC(C)C)NC(=O)[C@H](Cc2c[nH]cn2)NC(C)=O)C(=O)N[C@@H](C(C)C)C(=O)NCC(=O)N[C@@H](CC(=O)O)C(=O)N1)C(=O)N[C@@H](CC(=O)O)C(=O)N[C@@H](CCCNC(=N)N)C(N)=O` [Ac-His-Leu-Ala-(allylGly)-Val-Gly-Asp-Cys-Nle-Asp-Arg-NH2]: the ring closure, isolated yield (from C=CC[C@H](NC(=O)[C@H](C)NC(=O)[C@H](CC(C)C)NC(=O)[C@H](Cc1c[nH]cn1)NC(C)=O)C(=O)N[C@H](C(=O)NCC(=O)N[C@@H](CC(=O)O)C(=O)N[C@@H](CS)C(=O)N[C@@H](CCCC)C(=O)N[C@@H](CC(=O)O)C(=O)N[C@@H](CCCNC(=N)N)C(N)=O)C(C)C, 17-membered ring) was 23%.
Where the note is “from C=CC(=O)N[C@@H](C)C(=O)N[C@@H](Cc1ccccc1)C(=O)N[C@@H](C)C(=O)N[C@@H](CS)C(N)=O, 15-membered ring, 1.0 h”, `C[C@@H]1NC(=O)CCC[C@@H](C(N)=O)NC(=O)[C@H](C)NC(=O)[C@H](Cc2ccccc2)NC1=O` [Acryloyl-Ala-Phe-Ala-Cys-NH2] came in with a ring closure, isolated yield of 0%.
